Measured values reported in US7612087B2, “Heterocyclic compounds as inhibitors of beta-lactamases” (Novexel, priority 2002, dated 2009).
Where two headings read alike, the source gives them in different places.

Columns and labels:
β-lactamase TEM1 = target: T1, β-lactamase TEM1 (Escherichia coli, UniProt P62593); assay: Inhibition of isolated β-lactamase Tem-1 (Nitrocefin hydrolysis); format: biochemical, E.coli 250HT21; details: 100 μM Nitrocefin, 50 mM sodium phosphate buffer pH7.0, 37° C.
T1 construct: The β-lactamases are isolated from bacterial strains which are resistant to penicillins and cephalosporins; endogenous in cells; host or cells: E. coli 250HT21 (natural producer; French-press lysate, 100,000 g supernatant)
Description: (§1) A. Preparation of the β-lactamases Tem-1 and P99
(§2) The β-lactamases are isolated from bacterial strains which are resistant to penicillins and cephalosporins (Tem1 and P99 are produced by E.coli 250HT21 and E.Cloacae 293HT6 respectively).
(§3) The bacteria are cultured at 37° C. in heart-brain culture at 37 g/l (DIFCO). They are harvested at the end of the exponential phase, cooled down and centrifuged. The bacterial pellets are taken up in sodium phosphate buffer 50 mM, pH 7.0 and centrifuged again. The bacteria are taken up in two volumes of the same buffer and lyzed using a French-Press maintained at 4° C. After centrifugation for 1 hour at 100,000 g, at 4° C., the supernatants containing the soluble fraction of the bacterial extracts are recovered and frozen at −80° C.
(§4) The method uses Nitrocefin (OXOID), cephalosporin chromogene as substrate, of which the product hydrolyzed by the B-lactamases is red and absorbs at 485 nm. Beta-lactamase activity is determined kinetically by measurement of the absorbance variation at 485 nm resulting from the hydrolysis of the substrate using a plate spectrophotometer (Spectra Max More Molecular Devices). The experiments are carried out at 37° C. The quantity of enzyme was normalized and the measurements are carried out at initial speed.
(§5) Two measurements were carried out, without preincubation and with preincubation of the enzyme and inhibitor (5 mn), in order to test the irreversibility of the reaction. The products are tested at 6 or 8 concentrations in duplicate. The reaction mixture contains 100 μM of Nitrocefin and 50 mM sodium phosphate buffer pH7.0.
(§6) The hydrolysis speeds are measured with and without inhibitor. The concentration of inhibitor which inhibits by 50% the hydrolysis reaction of Nitrocefin by the enzyme (CI50) is determined. The data is processed using GraFit software (Erathycus Software).

β-lactamase P99 = target: T2, β-lactamase P99 (Enterobacter cloacae, UniProt P05364); assay: biochemical; details: 100 μM Nitrocefin, 50 mM sodium phosphate buffer pH7.0, 37° C.; read-out: IC50 nM/P99
T2 construct: The β-lactamases are isolated from bacterial strains which are resistant to penicillins and cephalosporins; endogenous in cells; host or cells: Enterobacter cloacae 293HT6 (natural producer; French-press lysate, 100,000 g supernatant)
Description: as §1, §2, §3, §4, §5, §6

E. coli 250CF1 (Tem3) = assay: microbe, parasite or virus in culture; format: cell-based; details: 24 hours at 37° C.; for MIC: Escherichia coli
Description: (§7) The operation is carried out as follows, using the so-called micro-dilution in liquid medium method.
(§8) A series of concentrations of the β-lactamine is prepared in the presence of a constant concentration (5 mg/l) of the product to be studied, each is then seeded with various bacterial strains.
(§9) After incubation for 24 hours in a heating chamber at 37° C., the growth inhibition is evaluated by the absence of any bacterial development, which allows the minimal inhibitory concentrations (MIC) for each strain to be determined, expressed in milligrams/l.

[1] = test system: E. cloacae 293HT6 (Class C); assay: MIC, micro-dilution in liquid medium, β-lactamine with product at 5 mg/l; format: cell-based; details: 24 hours at 37° C.; for MIC: Enterobacter cloacae
Description: as §7, §8, §9

E. coli 250BE1 (SHV4) = assay: as above; format: cell-based; details: 24 hours at 37° C.; for MIC: Escherichia coli
Description: as §7, §8, §9

E. coli 250HT21 (Tem1) = assay: as above; format: cell-based; details: 24 hours at 37° C.; for MIC: Escherichia coli
Description: as §7, §8, §9

E. coli 250HT22 (Tem2) = assay: as above; format: cell-based; details: 24 hours at 37° C.; for MIC: Escherichia coli
Description: as §7, §8, §9

[2] = test system: E. coli 250HT23 (Class D); assay: as above; format: cell-based; details: 24 hours at 37° C.; for MIC: Escherichia coli
Description: as §7, §8, §9

E. coli 250HT26 (SHV1) = assay: as above; format: cell-based; details: 24 hours at 37° C.; for MIC: Escherichia coli
Description: as §7, §8, §9

E. coli 250SJ1 (Tem7) = assay: as above; format: cell-based; details: 24 hours at 37° C.; for MIC: Escherichia coli
Description: as §7, §8, §9

[3] = test system: S. aureus 011GO66 (PeniR); assay: as above; format: cell-based; details: 24 hours at 37° C.; for MIC: Staphylococcus aureus
Description: as §7, §8, §9

[4] = test system: P. aeruginosa 391HT7 (PSE); assay: as above; format: cell-based; details: Pseudomonas aeruginosa, 24 hours at 37° C.
Description: as §7, §8, §9

[5] = test system: P. aeruginosa 391HT8 (PSE); assay: as above; format: cell-based; details: Pseudomonas aeruginosa, 24 hours at 37° C.
Description: as §7, §8, §9

Serratia 301HT6 = assay: as above; format: cell-based; details: Trial 10, 301HT6 Serratia, 24 hours at 37° C.
Description: as §7, §8, §9

T2 sequence (P05364 21-381): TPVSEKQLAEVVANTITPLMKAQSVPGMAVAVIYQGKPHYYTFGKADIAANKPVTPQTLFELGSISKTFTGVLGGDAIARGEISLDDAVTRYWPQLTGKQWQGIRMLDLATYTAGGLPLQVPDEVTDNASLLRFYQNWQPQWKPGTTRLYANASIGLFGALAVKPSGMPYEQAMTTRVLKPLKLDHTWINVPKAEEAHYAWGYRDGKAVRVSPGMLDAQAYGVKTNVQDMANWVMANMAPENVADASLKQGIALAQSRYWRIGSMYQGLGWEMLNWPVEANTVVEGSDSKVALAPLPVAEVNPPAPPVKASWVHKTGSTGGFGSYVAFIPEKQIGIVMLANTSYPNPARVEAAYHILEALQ
T1 sequence (P62593 24-286 limits assumed): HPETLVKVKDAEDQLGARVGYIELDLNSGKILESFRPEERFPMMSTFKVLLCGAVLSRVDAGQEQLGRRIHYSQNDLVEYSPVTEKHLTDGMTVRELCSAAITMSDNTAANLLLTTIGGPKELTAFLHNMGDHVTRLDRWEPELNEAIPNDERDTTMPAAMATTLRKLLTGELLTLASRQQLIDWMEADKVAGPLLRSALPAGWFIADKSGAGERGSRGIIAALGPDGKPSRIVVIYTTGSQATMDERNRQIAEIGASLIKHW

**Q.** What does the source list for `O=C(OCCc1ccncc1)[C@H]1CC[C@@H]2CN1C(=O)N2OS(=O)(=O)[O-].[Na+]` (relative stereo) [Example 49, sodium salt of trans 2-(4-pyridinyl)ethyl 7-oxo-6-(sulphooxy)-1,6-diazabicyclo[3.2.1]octane-2-carboxylate]?
**A.** IC50 (β-lactamase TEM1): 8.2 nM; IC50 (β-lactamase P99): 98 nM; MIC of Cefotaxime in combination with the compound (E. coli 250CF1 (Tem3); compound at 5 mg/l, Trial 4, 250CF1 E. coli Tem3): 0.08 µg/mL; MIC of Piperacillin in combination with the compound (E. coli 250CF1 (Tem3); compound at 5 mg/l, Trial 4, 250CF1 Tem3): 1.2 µg/mL; MIC of Piperacillin in combination with the compound ([1]; compound at 5 mg/l, Trial 9, 293HT6 Class): 10 µg/mL; MIC of Cefotaxime in combination with the compound (E. coli 250BE1 (SHV4); compound at 5 mg/l, Trial 7, 250BE1 E. coli SHV4): <=0.04 μg/ml; MIC of Piperacillin in combination with the compound (E. coli 250BE1 (SHV4); compound at 5 mg/l, Trial 7, 250BE1 SHV4): 20 µg/mL; MIC of Cefotaxime in combination with the compound (E. coli 250HT21 (Tem1); compound at 5 mg/l, Trial 2, 250HT21 E. coli Tem1): <=0.04 μg/ml; MIC of Piperacillin in combination with the compound (E. coli 250HT21 (Tem1); compound at 5 mg/l, Trial 2, 250HT21 Tem1): 1.2 µg/mL; MIC of Cefotaxime in combination with the compound (E. coli 250HT22 (Tem2); compound at 5 mg/l, Trial 3, 250HT22 E. coli Tem2): <=0.04 μg/ml; MIC of Piperacillin in combination with the compound (E. coli 250HT22 (Tem2); compound at 5 mg/l, Trial 3, 250HT22 Tem2): 2.5 µg/mL; MIC of Piperacillin in combination with the compound ([2]; compound at 5 mg/l, Trial 8, 250HT23 Class D): 10 µg/mL; MIC of Cefotaxime in combination with the compound ([2]; compound at 5 mg/l, Trial 8, 250HT23 E. coli Class D): <=0.04 μg/ml; MIC of Cefotaxime in combination with the compound (E. coli 250HT26 (SHV1); compound at 5 mg/l, Trial 6, 250HT26 E. coli SHV1): <=0.04 μg/ml; MIC of Piperacillin in combination with the compound (E. coli 250HT26 (SHV1); compound at 5 mg/l, Trial 6, 250HT26 SHV1): 20 µg/mL; MIC of Cefotaxime in combination with the compound (E. coli 250SJ1 (Tem7); compound at 5 mg/l, Trial 5, 250SJ1 E. coli Tem7): <=0.04 μg/ml; MIC of Piperacillin in combination with the compound (E. coli 250SJ1 (Tem7); compound at 5 mg/l, Trial 5, 250SJ1 Tem7): 5 µg/mL; MIC of Cefotaxime in combination with the compound ([3]; compound at 5 mg/l, Trial 1, 011GO66 S. aureus PeniR): 2.5 µg/mL; MIC of Piperacillin in combination with the compound ([3]; compound at 5 mg/l, Trial 1, 011GO66 peniR): 1.2 µg/mL

**Q.** Which MIC (E. coli 250CF1 (Tem3); Trial 4, 250CF1 E. coli Tem3, read-out: MIC of Cefotaxime alone) does the source give for `CO/N=C(\C(=O)N[C@@H]1C(=O)N2C(C(=O)O)=C(COC(C)=O)CS[C@H]12)c1csc(N)n1` [Cefotaxime, cefotaxime, reference compound] here?
**A.** > 40 µg/mL

**Q.** What about the MIC ([1]; Trial 9, 293HT6 E. cloacae Class C, read-out: MIC of Cefotaxime alone) of the same molecule?
**A.** > 40 µg/mL

**Q.** What about the MIC (E. coli 250BE1 (SHV4); Trial 7, 250BE1 E. coli SHV4, read-out: MIC of Cefotaxime alone) of the same molecule?
**A.** 40 µg/mL

**Q.** And the MIC (E. coli 250HT21 (Tem1); Trial 2, 250HT21 E. coli Tem1, read-out: MIC of Cefotaxime alone)?
**A.** ≤ 0.04 µg/mL

**Q.** And the MIC (E. coli 250HT22 (Tem2); Trial 3, 250HT22 E. coli Tem2, read-out: MIC of Cefotaxime alone)?
**A.** ≤ 0.04 µg/mL

**Q.** And the MIC ([2]; Trial 8, 250HT23 E. coli Class D, read-out: MIC of Cefotaxime alone)?
**A.** 0.08 µg/mL

**Q.** What about the MIC (E. coli 250HT26 (SHV1); Trial 6, 250HT26 E. coli SHV1, read-out: MIC of Cefotaxime alone) of the same molecule?
**A.** 0.6 µg/mL

**Q.** What about the MIC (E. coli 250SJ1 (Tem7); Trial 5, 250SJ1 E. coli Tem7, read-out: MIC of Cefotaxime alone) of the same molecule?
**A.** 0.08 µg/mL

**Q.** What about the MIC ([4]; Trial 11, 391HT7 P. aeruginosa PSE, read-out: MIC of Cefotaxime alone) of the same molecule?
**A.** 40 µg/mL

**Q.** And the MIC ([5]; Trial 12, 391HT8 P. aeruginosa PSE, read-out: MIC of Cefotaxime alone)?
**A.** 40 µg/mL

**Q.** What about the MIC ([3]; Trial 1, 011GO66 S. aureus PeniR, read-out: MIC of Cefotaxime alone) of the same molecule?
**A.** 1.2 µg/mL

**Q.** And the MIC (Serratia 301HT6; read-out: MIC of Cefotaxime alone)?
**A.** 0.3 µg/mL

**Q.** `CCN1CCN(C(=O)N[C@@H](C(=O)N[C@@H]2C(=O)N3[C@@H]2SC(C)(C)[C@@H]3C(=O)O)c2ccccc2)C(=O)C1=O` [Piperacillin, piperacillin, reference compound] was tested. Which MIC (E. coli 250CF1 (Tem3); Trial 4, 250CF1 Tem3, read-out: MIC of Piperacillin alone) did it give?
**A.** > 40 µg/mL

**Q.** What about the MIC ([1]; Trial 9, 293HT6 Class, read-out: MIC of Piperacillin alone) of the same molecule?
**A.** > 40 µg/mL

**Q.** What about the MIC (E. coli 250BE1 (SHV4); Trial 7, 250BE1 SHV4, read-out: MIC of Piperacillin alone) of the same molecule?
**A.** > 40 µg/mL

**Q.** And the MIC (E. coli 250HT21 (Tem1); Trial 2, 250HT21 Tem1, read-out: MIC of Piperacillin alone)?
**A.** > 40 µg/mL

**Q.** And the MIC (E. coli 250HT22 (Tem2); Trial 3, 250HT22 Tem2, read-out: MIC of Piperacillin alone)?
**A.** > 40 µg/mL

**Q.** What about the MIC ([2]; Trial 8, 250HT23 Class D, read-out: MIC of Piperacillin alone) of the same molecule?
**A.** > 40 µg/mL

**Q.** And the MIC (E. coli 250HT26 (SHV1); Trial 6, 250HT26 SHV1, read-out: MIC of Piperacillin alone)?
**A.** > 40 µg/mL

**Q.** And the MIC (E. coli 250SJ1 (Tem7); Trial 5, 250SJ1 Tem7, read-out: MIC of Piperacillin alone)?
**A.** > 40 µg/mL

**Q.** What about the MIC ([4]; Trial 11, 391HT7 PSE, read-out: MIC of Piperacillin alone) of the same molecule?
**A.** > 40 µg/mL

**Q.** And the MIC ([5]; Trial 12, 391HT8 PSE, read-out: MIC of Piperacillin alone)?
**A.** > 40 µg/mL

**Q.** What about the MIC ([3]; Trial 1, 011GO66 peniR, read-out: MIC of Piperacillin alone) of the same molecule?
**A.** 10 µg/mL

**Q.** What about the MIC (Serratia 301HT6; read-out: MIC of Piperacillin alone) of the same molecule?
**A.** 5 µg/mL
